Like-named read-outs stand apart in the source and are kept apart here.
Columns and labels:
[1] = tested on: human G-CSF (G21) promoter; assay: High-throughput luciferase reporter assay, G-CSF promoter (Screen III); details: for FOLD INDUCTION RELATIVE TO SOLVENT CONTROL, GCSF: Screen III activators
[2] = tested on: human growth hormone (532) promoter; assay: High-throughput luciferase reporter assay, human Growth Hormone promoter (Screen III); format: cell-based; details: 532 cells, 6 hours; for FOLD INDUCTION RELATIVE TO SOLVENT CONTROL, hGH: Screen III activators; for FOLD INHIBITION RELATIVE TO SOLVENT CONTROL, hGH: Screen III inhibitors
MMTV (M10) promoter = assay: High-throughput luciferase reporter assay, MMTV promoter (Screen III); format: cell-based, mouse; details: M10 cells, 6 hours; for FOLD INDUCTION RELATIVE TO SOLVENT CONTROL, MMTV: Screen III activators; for FOLD INHIBITION RELATIVE TO SOLVENT CONTROL, MMTV: Screen III inhibitors
Protocol: pMluci and pSV2Neo, an antibiotic resistance plasmid (112), were co-transfected into NIH/3T3 mouse fibroblast cells using the calcium phosphate precipitation method (103) with a commercially available kit (Pharmacia, Piscataway N.J.). Two days later, cells were transferred to media containing 0.4 mg/ml G418 and were grown for an additional 10-14 days. G418-resistant clones were isolated by standard methods. Once sufficient cell numbers were obtained, clones were analyzed based on several criteria: constitutive luciferase production, induction of luciferase expression by dexamethasone (1 μm, Sigma, St. Louis, Mo.), satisfactory attachment to microtiter plates used in the high-throughput screen and acceptable standard deviation in multiple luciferase expression assays (see below for assay protocol). This analysis was carried out using the luciferase assay conditions described above. Of the clones which satisfied the above criteria for the high throuphput screen, one clone, M10, was selected for use.

[3] = Screen III inhibitors, G21 cells, 6 hours

SMILES	FOLD INDUCTION RELATIVE TO SOLVENT CONTROL, GCSF ([1]; G21 cells, 6 hours) [fold]	FOLD INDUCTION RELATIVE TO SOLVENT CONTROL, hGH [2] [fold]	FOLD INDUCTION RELATIVE TO SOLVENT CONTROL, MMTV (MMTV (M10) promoter) [fold]	FOLD INHIBITION RELATIVE TO SOLVENT CONTROL, GCSF [1, 3] [fold]	FOLD INHIBITION RELATIVE TO SOLVENT CONTROL, hGH [2] [fold]	FOLD INHIBITION RELATIVE TO SOLVENT CONTROL, MMTV (MMTV (M10) promoter) [fold]	FOLD INHIBITION RELATIVE TO SOLVENT CONTROL, GCSF [1]
CON(C)C(=O)Nc1ccc(Cl)cc1 [compound 552]	0.81	5.31	0.86				
CC1=CC(=C(c2cc(C)c(O)c(C(=O)O)c2)c2c(Cl)ccc(S(=O)(=O)O)c2Cl)C=C(C(=O)O)C1=O [compound 556]				0.73	33.33	0.87	
CC(=O)NCCCC[C@H](NC(C)=O)C(=O)O [compound 577]				0.64	4.00	0.68	
O=C(O[C@H](C(=O)O)[C@H](OC(=O)c1ccccc1)C(=O)O)c1ccccc1 [compound 578]				0.65	4.00	0.91	
COc1ccc(CC(=O)O)cc1OC [compound 629]	0.85	1.05	2.48				
O=C(O)CC1NC(=O)NC1=O (stereo not drawn) [compound 630]				0.70	3.57	0.74	
O=C(O)c1[nH]c(=O)[nH]c(=O)c1I [compound 633]	1.02	0.86	2.46				
Nc1c(O)c(S(=O)(=O)O)c(O)c2c1C(=O)c1ccccc1C2=O [compound 640]				0.64	5.00	0.59	
O=C(c1ccc(O)c(O)c1)c1c(O)cc(O)cc1O [compound 660]				10.0	0.34	1.04	
CN(C)c1ccc(C(=C2C=CC(=[N+](C)C)C=C2)c2ccc([N+](C)(C)C)cc2)cc1 [compound 670]	> 3	0.52	0.79				
C1CCNCC1 [compound 759]					5.88	0.95	0.64
CC(=O)OCC(=O)[C@@]1(O)CC[C@H]2[C@@H]3CCC4=CC(=O)C=C[C@]4(C)[C@H]3[C@@H](O)C[C@@]21C [compound 765]	0.96	1.30	2.66				
CCOc1ccc2nc3cc(N)ccc3c(N)c2c1 [compound 790]	0.01	5.94	0.58				
O=C1OC2(c3cc(I)c(O)c(I)c3Oc3c2cc(I)c(O)c3I)c2c(Cl)c(Cl)c(Cl)c(Cl)c21 [compound 792]	0.94	5.31	1.21				
Clc1ccc(Sc2cc(Cl)c(Cl)cc2Cl)cc1 [compound 828]	1.47	1.34	2.20				
N=c1ccc2nc3ccc(N)cc3sc-2c1 [compound 836]	3.20	0.23	0.58				
CC1(C)O[C@@H]2C[C@H]3[C@@H]4CCC5=CC(=O)C=C[C@]5(C)[C@@]4(F)[C@@H](O)C[C@]3(C)[C@]2(C(=O)CO)O1 [compound 848]	0.75	1.28	2.43				
CCCCCCCCCCCCCCCC(=O)OCC(COC(=O)CCCCCCCCCCCCCCC)OC(=O)CCCCCCCCCCCCCCC [compound 856]	0.28	6.49	0.42				
Nc1ccc(C=CC(=O)O)cc1 [compound 1234]	4.97	0.51	1.03				
Cc1c(C2(c3cc(Br)c(O)c(Br)c3C)OS(=O)(=O)c3ccccc32)cc(Br)c(O)c1Br [compound 1251]	0.14	15.19	0.33				
Clc1cc(Cl)cc(Br)c1 [compound 1255]	6.74	0.43	1.09				

SMILES	FOLD INDUCTION RELATIVE TO SOLVENT CONTROL, GCSF ([1]; G21 cells, 6 hours) [fold]	FOLD INDUCTION RELATIVE TO SOLVENT CONTROL, hGH [2] [fold]	FOLD INDUCTION RELATIVE TO SOLVENT CONTROL, MMTV (MMTV (M10) promoter) [fold]	FOLD INHIBITION RELATIVE TO SOLVENT CONTROL, GCSF [1, 3] [fold]	FOLD INHIBITION RELATIVE TO SOLVENT CONTROL, hGH [2] [fold]	FOLD INHIBITION RELATIVE TO SOLVENT CONTROL, MMTV (MMTV (M10) promoter) [fold]	FOLD INHIBITION RELATIVE TO SOLVENT CONTROL, GCSF [1]
Nc1c(Cl)ncnc1Cl [compound 1269]	0.72	0.91	2.18				
Nc1ccc2c(c1)Cc1ccccc1-2 [compound 1316]	0.74	1.39	2.33				
Nc1ccc2c(c1)C(=O)c1ccccc1-2 [compound 1318]	1.13	0.85	2.41				
Nc1ccc(S(=O)(=O)O)c2cccc(O)c12 [compound 1337]	0.07	15.87	0.23				
NCc1ccc(S(N)(=O)=O)cc1 [compound 1375]	8.94	0.04	1.37				
Cc1ccc(N)c(S(=O)(=O)O)c1 [compound 1376]	6.37	0.04	1.32				
Cc1ccc(C(=O)c2ccccc2N)cc1 [compound 1384]	1.33	0.50	2.43				
Cc1cc(N)sn1 [compound 1397]	3.63	0.57	1.13				
Nc1ccccc1SSc1ccccc1N [compound 1482]	3.99	0.54	1.07				
Nc1ccc(SSc2ccc(N)cc2)cc1 [compound 1483]	4.64	0.38	1.09				
Nc1nc(-c2ccccc2)cs1 [compound 1499]	0.24	5.55	0.61				
Nc1nc2nc[nH]c2c(=S)[nH]1 [compound 1521]	3.59	0.73	0.92				
Nc1nccs1 [compound 1550]	0.04	5.44	0.87				
NC1=NCCS1 [compound 1552]	1.23	7.26	0.52				
Nc1c(Cl)c(Cl)nc(C(=O)O)c1Cl [compound 1561]	0.23	8.05	0.48				
Brc1ccc2c3c(cccc13)CC2 [compound 1573]	1.49	0.34	4.30				
Nc1ncnc2c1nc(Br)n2[C@@H]1O[C@H](CO)[C@@H](O)[C@H]1O [compound 1583]	5.82	0.12	0.88				
Cc1ccc(P(CCP(c2ccc(C)cc2)c2ccc(C)cc2)c2ccc(C)cc2)cc1 [compound 1591]				0.56	5.55	0.96	
CC1(C)[C@@H](C(=O)OCC(F)(F)C(F)(F)C(F)(F)C(F)(F)C(F)(F)C(F)F)CC[C@@]1(C)C(=O)OCC(F)(F)C(F)(F)C(F)(F)C(F)(F)C(F)(F)C(F)F [compound 1592]	3.20	0.74	1.34				
O=C(Nc1cccc(C2=NCCN2)c1)Nc1cccc(C2=NCCN2)c1 [compound 1598]	0.72	5.32	1.27				

Source: patent publication US6203976A, “Methods of preparing compositions comprising chemicals capable of transcriptional modulation” (OSI Pharmaceuticals, Inc., priority 1994, dated 2001)
